# Read-outs that look alike come from different tables or passages of the source.
# Test: Phase 1/2 clinical study, plasma pharmacokinetic evaluation
# Type: in vivo, human
# Details: human, plasma, oral
# Description: In the present test of the present compound, PK samples have been collected in up to 24 patients dosed in dose groups of 40, 80, 100, and 120 mg BID Arm A, and in dose groups of 40 and 60 mg BID Arm B (Table 6). Large preliminary PK inter-patient variability was observed.
# (1) In the present study, PK samples have been collected in up to 42 patients dosed in dose groups of 40, 80, 100, 120, 140 and 200 mg BID Arm A, and in dose groups of 40, 60, 100, and 200 mg BID Arm B (Table 15).
# (2) In the present study, PK samples have been collected in patients dosed in dose groups of 40, 80, 100, 120, 140, 200, and 300 mg BID Arm A, and in dose groups of 40, 60, 100, 200, and 300 mg BID Arm B (Table 16).
# [1] = 100 mg, 100 mg BID Arm A, C2D1, N=1
# [2] = 100 mg, 100 mg BID Arm B, Cycle 1 Day 1, N=4, mean
# [3] = 100 mg, 100 mg BID Arm B, Cycle 2 Day 1, N=4, mean
# [4] = 100 mg, Cycle 1 Day 1, 100 mg BID Arm A (without azole), N=2, mean
# [5] = 100 mg, Cycle 1 Day 1, 100 mg BID Arm B (with azole), N=4, mean
# [6] = 100 mg, Cycle 2 Day 1, 100 mg BID Arm A (without azole), N=1
# [7] = 100 mg, Cycle 2 Day 1, 100 mg BID Arm B (with azole), N=4, mean
# [8] = 100 mg, Table 15 cut-off, 100 mg BID Arm A, Cycle 1 Day 1, N=2, mean
# [9] = 100 mg, Table 15 cut-off, 100 mg BID Arm A, Cycle 2 Day 1, N=1
# [10] = 120 mg, 120 mg BID Arm A, C1D1, N=6, mean
# [11] = 120 mg, 120 mg BID Arm A, C2D1, N=6, mean
# [12] = 120 mg, Cycle 1 Day 1, 120 mg BID Arm A (without azole), N=6, mean
# [13] = 120 mg, Cycle 2 Day 1, 120 mg BID Arm A (without azole), N=6, mean
# [14] = 120 mg, Table 15 cut-off, 120 mg BID Arm A, Cycle 1 Day 1, N=6, mean
# [15] = 120 mg, Table 15 cut-off, 120 mg BID Arm A, Cycle 2 Day 1, N=6, mean
# [16] = 140 mg, 140 mg BID Arm A, Cycle 1 Day 1, N=6 (incl. two patients with MDS), mean
# [17] = 140 mg, 140 mg BID Arm A, Cycle 2 Day 1, N=5 (incl. two patients with MDS), mean
# [18] = 140 mg, Cycle 1 Day 1, 140 mg BID Arm A (without azole), N=6 (two MDS patients included, one pt excluded), mean
# [19] = 140 mg, Cycle 2 Day 1, 140 mg BID Arm A (without azole), N=5 (two MDS patients included, one pt excluded), mean
# [20] = 140 mg, Cycle 2 Day 1, 140 mg BID Arm B (with azole), N=1
# [21] = 200 mg, 200 mg BID Arm A, Cycle 1 Day 1, N=4, mean
# [22] = 200 mg, 200 mg BID Arm B, Cycle 1 Day 1, N=6, mean
# [23] = 200 mg, 200 mg BID Arm B, Cycle 2 Day 1, N=2, mean
# [24] = 200 mg, Cycle 1 Day 1, 200 mg BID Arm A (without azole), N=5, mean
# [25] = 200 mg, Cycle 1 Day 1, 200 mg BID Arm B (with azole), N=11, mean
# [26] = 200 mg, Cycle 2 Day 1, 200 mg BID Arm A (without azole), N=3, mean
# [27] = 200 mg, Cycle 2 Day 1, 200 mg BID Arm B (with azole), N=5 (three patients excluded), mean
# [28] = 300 mg, Cycle 1 Day 1, 300 mg BID Arm A (without azole), N=4, mean
# [29] = 300 mg, Cycle 1 Day 1, 300 mg BID Arm B (with azole), N=3 (one patient pending re-assay), mean
# [30] = 300 mg, Cycle 2 Day 1, 300 mg BID Arm A (without azole), N=3, mean
# [31] = 300 mg, Cycle 2 Day 1, 300 mg BID Arm B (with azole), N=1 (one patient pending re-assay)
compound,measurement,setting,value
"C=C1C[C@@H]2CC[C@H]1[C@@H](C(=O)N1CCC3(CC1)CN(c1ncncc1Oc1ccc(F)cc1C(=O)N(C(C)C)C(C)C)C3)N2 [the present compound, 5-fluoro-2-[(4-{7-[(1S,3S,4R)-5-methylidene-2-azabicyclo[2.2.2]octane-3-carbonyl]-2,7-diazaspiro[3.5]nonan-2-yl}pyrimidin-5-yl)oxy]-N,N-di(propan-2-yl)benzamide]",Tmax,"100 mg, 100 mg BID Arm A, C1D1, N=2, mean",3 h
same,half-life,"100 mg, 100 mg BID Arm A, C1D1, N=2, mean, read-out: t1/2 (converted)",5.64 h
same,AUC(0-t),[1],6060 ng·h/mL
same,Cmax,[1],2840 ng/mL
same,Tmax,[1],1 h
same,half-life,"100 mg, 100 mg BID Arm A, C2D1, N=1, read-out: t1/2 (converted)",2.88 h
same,AUC(0-t),[2],5600 ng·h/mL
same,Cmax,[2],1650 ng/mL
same,AUC(0-t),[3],8350 ng·h/mL
same,Cmax,[3],1810 ng/mL
same,AUC(0-t),[4],4940 ng·h/mL
same,Cmax,[4],1380 ng/mL
same,AUC(0-t),[5],5600 ng·h/mL
same,Cmax,[5],1650 ng/mL
same,AUC(0-t),[6],6060 ng·h/mL
same,Cmax,[6],2840 ng/mL
same,AUC(0-t),[7],8350 ng·h/mL
same,Cmax,[7],1810 ng/mL
same,AUC(0-t),[8],4940 ng·h/mL
same,Cmax,[8],1380 ng/mL
same,AUC(0-t),[9],6060 ng·h/mL
same,Cmax,[9],2840 ng/mL
same,AUC(0-t),[10],6250 ng·h/mL
same,Cmax,[10],2280 ng/mL
same,Tmax,[10],1.25 h
same,half-life,"120 mg, 120 mg BID Arm A, C1D1, N=6, mean, read-out: t1/2 (converted)",2.87 h
same,AUC(0-t),[11],7860 ng·h/mL
same,Cmax,[11],1980 ng/mL
same,Tmax,[11],1.2 h
same,half-life,"120 mg, 120 mg BID Arm A, C2D1, N=6, mean, read-out: t1/2 (converted)",3.26 h
same,AUC(0-t),[12],6290 ng·h/mL
same,Cmax,[12],2320 ng/mL
same,AUC(0-t),[13],7970 ng·h/mL
same,Cmax,[13],1980 ng/mL
same,AUC(0-t),[14],6290 ng·h/mL
same,Cmax,[14],2320 ng/mL
same,AUC(0-t),[15],7970 ng·h/mL
same,Cmax,[15],1980 ng/mL
same,AUC(0-t),[16],3570 ng·h/mL
same,Cmax,[16],1480 ng/mL
same,AUC(0-t),[17],4200 ng·h/mL
same,Cmax,[17],1670 ng/mL
same,AUC(0-t),[18],3570 ng·h/mL
same,Cmax,[18],1480 ng/mL
same,AUC(0-t),"140 mg, Cycle 1 Day 1, 140 mg BID Arm B (with azole), N=2, mean",7000 ng·h/mL
same,AUC(0-t),[19],4200 ng·h/mL
same,Cmax,[19],1670 ng/mL
same,AUC(0-t),[20],5520 ng·h/mL
same,Cmax,[20],1770 ng/mL
same,AUC(0-t),[21],9650 ng·h/mL
same,Cmax,[21],3850 ng/mL
same,AUC(0-t),[22],21200 ng·h/mL
same,Cmax,[22],6260 ng/mL
same,AUC(0-t),[23],16700 ng·h/mL
same,Cmax,[23],4360 ng/mL
same,AUC(0-t),[24],12100 ng·h/mL
same,Cmax,[24],3870 ng/mL
same,AUC(0-t),[25],21200 ng·h/mL
same,Cmax,[25],5700 ng/mL
same,AUC(0-t),[26],12000 ng·h/mL
same,Cmax,[26],3850 ng/mL
same,AUC(0-t),[27],16800 ng·h/mL
same,Cmax,[27],4070 ng/mL
same,AUC(0-t),[28],15900 ng·h/mL
same,Cmax,[28],6070 ng/mL
same,AUC(0-t),[29],26000 ng·h/mL
same,Cmax,[29],5970 ng/mL
same,AUC(0-t),[30],12400 ng·h/mL
same,Cmax,[30],3060 ng/mL
same,AUC(0-t),[31],20500 ng·h/mL
same,Cmax,[31],4210 ng/mL
same,half-life,"Arm A (without azole), FIGS. 4A to 4D cut-off, read-out: Mean t1/2",2 to 6 h
same,half-life,"Arm A, 40-120 mg BID, read-out: Mean plasma t1/2",2.82 to 5.64 h
same,half-life,"Arm A, 40-200 mg BID (up to 42 patients), read-out: Mean apparent half-life",2 to 5 h
same,half-life,"Arm A, 40-300 mg BID, read-out: Mean apparent half-life",2 to 4 h
same,half-life,"Arm B (with azole), FIGS. 4A to 4D cut-off, read-out: Mean t1/2",3 to 7 h
same,half-life,"Arm B, 40-60 mg BID, read-out: Mean plasma t1/2",2.61 to 7.29 h
same,half-life,"Arm B, 40-200 mg BID (up to 42 patients), read-out: Mean apparent half-life",3 to 7 h
same,half-life,"Arm B, 40-300 mg BID, read-out: Mean apparent half-life",3 to 7 h
same,Tmax,"post dose, Arms A and B, first cut-off",≤ 2 h
